Literature values as cited in patent US8247562B2, “Benzamide derivatives useful as histone deacetylase inhibitors” (Astrazeneca AB, priority 2002, dated 2012).

Tests used:
rat fibroblasts = settings: Yoshida et al, Exper. Cell Res., 177, 122-131 (1988)
tumours in mice = settings: Finnin et al., Nature, 401, 188-193 (1999)

## CC(/C=C/C(=O)NO)=C\[C@@H](C)C(=O)c1ccc(N(C)C)cc1 [Trichostatin A]
Rat fibroblasts
  cell cycle arrest: arrest of rat fibroblasts at the G1 and G2 phases of the cell cycle
Tumours in mice
  formation of tumours: prevent the formation of tumours in mice
